≈ marks a conversion by molar mass, not a printed value. Like-named read-outs stand apart in the source and are kept apart here.
Key:
S. aureus (ATCC 29213) = test: MIC, broth microdilution; type: cell-based
[1] = test system: S. epidermidis (ATCC 35984); test: MIC, broth microdilution; type: cell-based; conditions: for MIC S. epidermidis (ATCC 35984): CAMHB, 24 h, 37° C.; for MIC: S. epidermidis (ATCC 35984)
[2] = test system: HT-29 human colon adenocarcinoma cells; test: Antiproliferative assay (MTT); type: cell-based; conditions: 24-h exposure, 10% FBS-supplemented RPMI 1640, MTT; for IC50: Homo sapiens, HT-29
Description: As celecoxib has been reported to be cytotoxic to cancer cells, the growth inhibitory activities of celecoxib and selected derivatives were assessed in. HT-29 human colon adenocarcinoma cells after 24-h exposure in 10% FBS-supplemented RPMI 1640 medium.
Antiproliferative assay. The cytotoxicity of individual test agents in HT-29 human colon adenocarcinoma cells was evaluated by using the 3-(4,5-dimethylthiazol-2-yl)-2,5-diphenyltetrazolium (MTT) assay. Briefly, HT-29 cells were seeded into 96-well plates at 1×10^4 cells/well (with a minimum of 6 wells per test condition) in RPMI 1640 medium supplemented with 10% FBS and 10 μg/ml of gentamicin. After overnight incubation at 37° C. under 5% CO2, the medium from each well was removed and replenished with fresh aliquots of the same medium containing various concentrations of test agents dissolved in DMSO (final concentration, 0.1%). Control cells were treated with DMSO alone at a concentration equal to that in drug-treated cells. After 24 h of drug exposure, the medium was removed and replaced by 100 μl of 0.5 mg/ml MTT in 10% FBS-containing medium, and the cells were incubated in the CO2 incubator at 37° C. for 2 h. Subsequently, medium was removed from each well, and the reduced MTT dye was dissolved with 100 μl of DMSO per well. Absorbance at 570 nm was measured with a plate reader. The 50% inhibitory concentration (IC50) of each drug was determined from dose-response curves by using CalcuSyn software (Biosoft, Cambridge, United Kingdom).

MRSA (SCCmec VT) = test: MIC, broth microdilution; type: cell-based, methicillin-resistant Staphylococcus aureus
MRSA (ATCC 33592) = test: MIC, broth microdilution; type: cell-based, methicillin-resistant Staphylococcus aureus
S. aureus (ATCC 12598) = test: MIC, broth microdilution; type: cell-based; conditions: Staphylococcus aureus, ATCC12598
MRSA (ATCC 49476) = test: MIC, broth microdilution; type: cell-based, methicillin-resistant Staphylococcus aureus; conditions: Staphylococcus aureus
[3] = test system: S. epidermidis (ATCC 12228); test: MIC, broth microdilution; type: cell-based; conditions: Staphylococcus epidermidis, ATCC12228
[4] = Table XIII, S. aureus (SSCmecVT)
[5] = Staphylococcus aureus, ATCC29213, 24 h, CAMHB, 24 h, 37° C., read-out: MIC S. aureus (ATCC 29213)
[6] = Staphylococcus aureus, read-out: MIC MRSA (ATCC 33592)
[7] = Staphylococcus aureus, MRSA, read-out: MIC MRSA (SCCmec VT)

Row | MIC S. aureus (ATCC 29213) (S. aureus (ATCC 29213); CAMHB, 24 h, 37° C.) | MIC S. epidermidis (ATCC 35984) [1] | IC50 HT-29 cells [2] | Structure (SMILES) | also measured
1 | 4 µg/mL (≈ 8.07 µM) | 4 µg/mL (≈ 8.07 µM) | 7.5 µg/mL (≈ 15.1 µM) | NCCC(=O)Nc1ccc(-n2nc(C(F)(F)F)cc2-c2ccc3c(c2)Nc2ccccc2S3)cc1 [Compound 28] | –
2 | 4 µg/mL (≈ 8.31 µM) | 4 µg/mL (≈ 8.31 µM) | 6.2 µg/mL (≈ 12.9 µM) | NCC(=O)Nc1ccc(-n2nc(C(F)(F)F)cc2-c2ccc3c(c2)Nc2ccccc2S3)cc1 [Compound 24] | –
3 | 2 µg/mL (≈ 3.76 µM) | 4 µg/mL (≈ 7.52 µM) | 19.5 µg/mL (≈ 36.7 µM) | NCCCC[C@H](N)C(=O)Nc1ccc(-n2nc(C(F)(F)F)cc2-c2ccc3c(ccc4ccccc43)c2)cc1 [Compound 34] | –
4 | – | – | – | NC[C@H]1O[C@H](O[C@H]2[C@H](O)[C@@H](O[C@H]3O[C@H](CO)[C@@H](O)[C@H](N)[C@H]3O)[C@H](N)C[C@@H]2N)[C@H](O)[C@@H](O)[C@@H]1O [Kanamycia] | MIC (MRSA (SCCmec VT); [4]): > 64 µg/mL
5 | – | – | – | CC1(C)S[C@@H]2[C@H](NC(=O)[C@H](N)c3ccccc3)C(=O)N2[C@H]1C(=O)O [Ampicillin] | MIC (MRSA (SCCmec VT); [4]): > 64 µg/mL
6 | – | – | – | CN(C)[C@@H]1C(O)=C(C(N)=O)C(=O)[C@@]2(O)C(O)=C3C(=O)c4c(O)cccc4[C@@](C)(O)[C@H]3C[C@@H]12 [Tetracycline, tetracycline, reference compound] | MIC (MRSA (SCCmec VT); [4]): 16 µg/mL (≈ 36 µM)
7 | 4 µg/mL (≈ 7.72 µM) | 4 µg/mL (≈ 7.72 µM) | 4.2 µg/mL (≈ 8.1 µM) | NCCC(=O)Nc1ccc(-n2nc(C(F)(F)F)cc2-c2ccc(-c3ccc(C(F)(F)F)cc3)cc2)cc1 [Compound 26] | –
8 | 4 µg/mL (≈ 8.43 µM) | 4 µg/mL (≈ 8.43 µM) | 6 µg/mL (≈ 12.6 µM) | NCCC(=O)Nc1ccc(-n2nc(C(F)(F)F)cc2-c2ccc3c(ccc4ccccc43)c2)cc1 [Compound 27] | –
9 | 4 µg/mL (≈ 7.24 µM) | 4 µg/mL (≈ 7.24 µM) | 5.2 µg/mL (≈ 9.41 µM) | NCCCC[C@H](N)C(=O)Nc1ccc(-n2nc(C(F)(F)F)cc2-c2ccc3c(c2)Nc2ccccc2S3)cc1 [Compound 35] | –
10 | – | – | – | [H]/N=C(/N)N[C@H]1[C@H](O)[C@@H](O)[C@H](O[C@@H]2O[C@@H](C)[C@](O)(C=O)[C@H]2O[C@@H]2O[C@@H](CO)[C@H](O)[C@@H](O)[C@@H]2NC)[C@@H](N/C(N)=N\[H])[C@@H]1O [Streptomycin, streptomycin, reference compound] | MIC (MRSA (SCCmec VT); [4]): > 64 µg/mL
11 | 4 µg/mL (≈ 7.24 µM) | 4 µg/mL (≈ 7.24 µM) | 17.5 µg/mL (≈ 31.7 µM) | NCCCC[C@@H](N)C(=O)Nc1ccc(-n2nc(C(F)(F)F)cc2-c2ccc3c(c2)Nc2ccccc2S3)cc1 [Compound 31] | –
12 | 4 µg/mL (≈ 6.95 µM) | 4 µg/mL (≈ 6.95 µM) | 3.3 µg/mL (≈ 5.73 µM) | NCCCC[C@H](N)C(=O)Nc1ccc(-n2nc(C(F)(F)F)cc2-c2ccc(-c3ccc(C(F)(F)F)cc3)cc2)cc1 [Compound 33] | –
13 | – | – | – | CS(=O)(=O)c1ccc(C2=C(c3ccccc3)C(=O)OC2)cc1 [Rofecoxib, rofecoxib, reference compound] | MIC (S. aureus (ATCC 29213); Staphylococcus aureus, ATCC29213, Table IX, S. aureus (ATCC 29213), read-out: MIC): > 64 µg/mL; MIC (S. aureus (ATCC 29213); Table IX, S. aureus (ATCC 29213)): NE (no effect of the test agent at 64 μg/ml); MIC (MRSA (ATCC 33592); Staphylococcus aureus, Table IX, MRSA (ATCC 33592), read-out: MIC): > 64 µg/mL; MIC (MRSA (ATCC 33592); Table IX, MRSA (ATCC 33592)): NE (no effect of the test agent at 64 μg/ml); MIC ([1]; Staphylococcus epidermidis, ATCC35984, Table IX, read-out: MIC): > 64 µg/mL; MIC ([1]; Table IX): NE (no effect of the test agent at 64 μg/ml); MIC (MRSA (SCCmec VT); Staphylococcus aureus, MRSA, Table IX, MRSA (SCCmec VT), read-out: MIC): > 64 µg/mL; MIC (MRSA (SCCmec VT); Table IX, MRSA (SCCmec VT)): NE (no effect of the test agent at 64 μg/ml)
14 | – | – | – | NS(=O)(=O)Nc1ccc(-n2nc(C(F)(F)F)cc2-c2ccc3ccccc3c2)cc1 [Compound 45, N-[4-(5-Naphthalen-2-yl-3-trifluoromethyl-pyrazol-1-yl)-phenyl]-aminosulfonamide] | MIC (S. aureus (ATCC 29213); [5]): 1 µg/mL (≈ 2.31 µM); IC50 [2]: 19 µg/mL (≈ 43.9 µM)
15 | 4 µg/mL (≈ 8.69 µM) | 4 µg/mL (≈ 8.69 µM) | 3.6 µg/mL (≈ 7.82 µM) | NCC(=O)Nc1ccc(-n2nc(C(F)(F)F)cc2-c2ccc3c(ccc4ccccc43)c2)cc1 [Compound 23] | –
16 | 4 µg/mL (≈ 8.61 µM) | 4 µg/mL (≈ 8.61 µM) | 7.2 µg/mL (≈ 15.5 µM) | NCCC(=O)Nc1ccc(-n2nc(C(F)(F)F)cc2-c2ccc3oc4ccccc4c3c2)cc1 [Compound 29] | –
17 | – | – | – | Cc1ccc(-c2ccc(-c3cc(C(F)(F)F)nn3-c3ccc(NS(N)(=O)=O)cc3)cc2)cc1 [Compound 43, N-{4-[5-(4′-Methylbiphenyl-4-yl)-3-trifluoromethyl-pyrazol-1-yl]-phenyl}-aminosulfonamide] | MIC (S. aureus (ATCC 29213); [5]): 1 µg/mL (≈ 2.12 µM); MIC (MRSA (ATCC 33592); [6]): 1 µg/mL (≈ 2.12 µM); MIC (S. aureus (ATCC 12598)): 1 µg/mL (≈ 2.12 µM); MIC (MRSA (SCCmec VT); [7]): 1 µg/mL (≈ 2.12 µM); IC50 [2]: 9 µg/mL (≈ 19 µM); MIC (MRSA (ATCC 49476)): 1 µg/mL (≈ 2.12 µM); MIC [3]: 1 µg/mL (≈ 2.12 µM)
18 | – | – | – | NS(=O)(=O)Nc1ccc(-n2nc(C(F)(F)F)cc2-c2ccc(-c3ccccc3)cc2)cc1 [Compound 42, N-[4-(5-Biphenyl-4-yl-3-trifluoromethyl-pyrazol-1-yl)-phenyl]-aminosulfonamide] | MIC (S. aureus (ATCC 29213); [5]): 1 µg/mL (≈ 2.18 µM); MIC (MRSA (ATCC 33592); [6]): 1 µg/mL (≈ 2.18 µM); MIC (S. aureus (ATCC 12598)): 1 µg/mL (≈ 2.18 µM); MIC (MRSA (SCCmec VT); [7]): 1 µg/mL (≈ 2.18 µM); IC50 [2]: 16 µg/mL (≈ 34.9 µM); MIC (MRSA (ATCC 49476)): 1 µg/mL (≈ 2.18 µM)
19 | – | – | – | O=C(N[C@H](CO)[C@H](O)c1ccc([N+](=O)[O-])cc1)C(Cl)Cl [Chloramphenicol, chloramphenicol, reference compound] | MIC (MRSA (SCCmec VT); [4]): > 64 µg/mL
20 | 4 µg/mL (≈ 8.88 µM) | 4 µg/mL (≈ 8.88 µM) | 6.5 µg/mL (≈ 14.4 µM) | NCC(=O)Nc1ccc(-n2nc(C(F)(F)F)cc2-c2ccc3oc4ccccc4c3c2)cc1 [Compound 25] | –
21 | 4 µg/mL (≈ 8.37 µM) | 8 µg/mL (≈ 16.7 µM) | 12.5 µg/mL (≈ 26.2 µM) | NS(=O)(=O)c1ccc(-n2nc(C(F)(F)F)cc2-c2ccc(-c3ccc(Cl)cc3)cc2)cc1 [Compound 11] | –
22 | 4 µg/mL (≈ 7.52 µM) | 4 µg/mL (≈ 7.52 µM) | 3.2 µg/mL (≈ 6.02 µM) | NCCCC[C@@H](N)C(=O)Nc1ccc(-n2nc(C(F)(F)F)cc2-c2ccc3c(ccc4ccccc43)c2)cc1 [Compound 30] | –
23 | – | – | – | NS(=O)(=O)Nc1ccc(-n2nc(C(F)(F)F)cc2-c2ccc(-c3ccc(Br)cc3)cc2)cc1 [Compound 44, N-{4-[5-(4′-Bromobiphenyl-4-yl)-3-trifluoromethyl-pyrazol-1-yl]-phenyl}-aminosulfonamide] | MIC (S. aureus (ATCC 29213); [5]): 1 µg/mL (≈ 1.86 µM); MIC (MRSA (ATCC 33592); [6]): 1 µg/mL (≈ 1.86 µM); MIC (S. aureus (ATCC 12598)): 1 µg/mL (≈ 1.86 µM); MIC (MRSA (SCCmec VT); [7]): 1 µg/mL (≈ 1.86 µM); IC50 [2]: 10 µg/mL (≈ 18.6 µM); MIC (MRSA (ATCC 49476)): 1 µg/mL (≈ 1.86 µM); MIC [3]: 1 µg/mL (≈ 1.86 µM)

Row | Structure (SMILES) | MIC S. aureus (ATCC 29213) (S. aureus (ATCC 29213); CAMHB, 24 h, 37° C.) | MIC S. epidermidis (ATCC 35984) [1] | IC50 HT-29 cells [2] | also measured
24 | FC(F)(F)c1cc(-c2ccc3c(ccc4ccccc43)c2)n(-c2ccccc2)n1 [Compound 21] | did not exhibit appreciable activity at 64 μg/ml or improved activity relative to celecoxib | did not exhibit appreciable activity at 64 μg/ml or improved activity relative to celecoxib | – | –
25 | NCC(=O)Nc1ccc(-n2nc(C(F)(F)F)cc2-c2ccc(-c3ccc(C(F)(F)F)cc3)cc2)cc1 [Compound 22] | did not exhibit appreciable activity at 64 μg/ml or improved activity relative to celecoxib | did not exhibit appreciable activity at 64 μg/ml or improved activity relative to celecoxib | – | –
26 | NCCCC[C@@H](N)C(=O)Nc1ccc(-n2nc(C(F)(F)F)cc2-c2ccc3oc4ccccc4c3c2)cc1 [Compound 32] | did not exhibit appreciable activity at 64 μg/ml or improved activity relative to celecoxib | did not exhibit appreciable activity at 64 μg/ml or improved activity relative to celecoxib | – | –
27 | CCCCc1ccc(-c2cc(C(F)(F)F)nn2-c2ccc(C(N)=O)cc2)cc1 [Compound 10] | did not exhibit appreciable activity at 64 μg/ml or improved activity relative to celecoxib | did not exhibit appreciable activity at 64 μg/ml or improved activity relative to celecoxib | – | –
